# In ChEMBL document CHEMBL1857833, “Screening and optimization of specific chemical series against human African Trypanosomiasis (HAT)”:
# “And” between values parts separate entries of the source, which are not always exact repeats. Equal values may be shown once.
# Key:
# [1] = mouse, microsomes, 1 µM
# Description: (§1) DNDI: half life in mouse liver microsomes at a concentration of 1uM
# [2] = in vitro; conditions: human, liver microsomes, t (1 / 2)
# Description: DNDI: half life in human liver microsomes at a concentration of 1uM
# [3] = test system: Trypanosoma brucei; test: DNDI: Inhibition of Human African Trypanosomiasis, SBRI 427, in vitro; type: functional, organism-based
# [4] = DNDI: Lipophilicity measured in Chromatographic hydrophobicity index (CHI) assay, pH 7.4; type: physicochemical; conditions: buffer
# [5] = DNDI: Solubility in phosphate buffered saline at pH7.4 measured by nephelometry at room temperature (NEPH-RT); type: physicochemical; conditions: pH 7.4
# [6] = test system: Trypanosoma brucei; test: DNDI: Mean survival time in days (MSD) of mice after intraperitoneal injection of Human African Trypanosomiasis (HAT), EATRO 110, in vivo at 20 mg/kg/day for 4 days.; type: functional, Mus musculus
# [7] = in vitro; conditions: mouse, liver microsomes, t (1 / 2)
# Description: as §1
# [8] = mouse, microsomes, 1 µM; remark: listed apart in the source
# Description: (§2) DNDI: in vitro intrinsic clearance in mouse liver microsomes at a concentration of 1uM
# [9] = in vitro; conditions: mouse, liver microsomes
# Description: as §2
# [10] = in vitro; conditions: human, liver microsomes, CLint in vitro
# Description: DNDI: in vitro intrinsic clearance in human liver microsomes at a concentration of 1uM
# [11] = DNDI: Cytotoxicity against L929 mouse fibroblasts, CYTO-SP, 24 hour; type: toxicity, cell-based; conditions: mouse, L929 mouse fibroblasts
# [12] = test system: Trypanosoma brucei; test: DNDI: Inhibition of Human African Trypanosomiasis, Cross 22, in vitro; type: functional, organism-based
# [13] = DNDI: Cytotoxicity against L929 mouse fibroblasts, 72 hour.; type: toxicity, cell-based; conditions: mouse, L929 mouse fibroblasts
# [14] = biological target: T1, MDR1 (ABCB1) (Homo sapiens, UniProt P08183); test: DNDI: Apparent permeability from apical to basolateral side of the MDCK cell transfected with human MDR1after 60 mins at a concentration of 3uM; type: ADME, cell-based, Canis lupus familiaris; conditions: dog, MDCK-MDR1
# [15] = biological target: T1, MDR1 (ABCB1); test: DNDI: % of compound recovered from apical to basolateral permeability assay in MDCK cells transfected with human MDR1 after 60 mins at a concentration of 3uM in the presence of GF120918; type: ADME, cell-based, Canis lupus familiaris; conditions: dog, MDCK-MDR1, with GF120918 (concentration not stated)
# [16] = biological target: T1, MDR1 (ABCB1); test: DNDI: Efflux ratio for permeability from basolateral to apical side to apical to basolateral side of MDCK cells transfected with human MDR1; type: ADME, cell-based, Canis lupus familiaris; conditions: dog, MDCK-MDR1; read-out: Calculated Ratio
# [17] = biological target: T1, MDR1 (ABCB1); test: DNDI: % of compound recovered from apical to basolateral permeability assay in MDCK cells transfected with human MDR1 after 60 mins at a concentration of 3uM; type: ADME, cell-based, Canis lupus familiaris; conditions: dog
# [18] = DNDI: half-life in mouse S9 microsomes at a concentration of 1uM; type: ADME, subcellular, Liver, S9 fraction
# [19] = DNDI: % of compound remaining in mouse S9 microsomes at a concentration of 1uM after 60 mins; type: ADME, subcellular, Liver, S9 fraction
# [20] = DNDI: % of compound remaining in rat S9 microsomes at a concentration of 1uM; type: ADME, subcellular, Liver, S9 fraction
# [21] = test system: Trypanosoma brucei rhodesiense; test: DNDI: Inhibition of Human African Trypanosomiasis (HAT), STIB 900, in vitro; type: functional, organism-based
# [22] = test system: Plasmodium falciparum; test: DNDI: Inhibition of the malaria parasite Plasmodium falciparum, in vitro; type: functional, organism-based; conditions: K1
# [23] = DNDI: in vitro intrinsic clearance in human liver microsomes at a concentration of 10uM; type: ADME, Microsome
# [24] = DNDI: half life in human liver microsomes at a concentration of 10uM; type: ADME, Microsome
# [25] = test system: Leishmania donovani; test: DNDI: Inhibition of formation of Leishmania donovani (strain MHOM/ET/67/L82) axenic amastigotes, in vitro.; type: functional, organism-based
# [26] = DNDI: Solubility in phosphate buffered saline at pH7.4 measured by optical density (turbidimetry) at room temperature (OD-RT); type: physicochemical; conditions: pH 7.4
# [27] = DNDI: Cytotoxicity against L-6 rat myoblasts from skeletal muscle cells; type: toxicity, cell-based, L6; conditions: L-6 rat skeletal muscle myoblasts
# [28] = DNDI: half life in mouse liver microsomes at a concentration of 10uM; type: ADME, Microsome
# [29] = test system: Trypanosoma cruzi; test: DNDI: Inhibition of Chagas Disease parasite Trypanosoma cruzi (Tulahuen LacZ, Clone C4), in vitro.; type: functional, organism-based
# [30] = DNDI: in vitro intrinsic clearance in mouse liver microsomes at a concentration of 10uM; type: ADME, Microsome; conditions: read-out: CLint in vitro
# [31] = Trypanosoma brucei, SBRI 427, read-out: IC50
# T1 sequence (P08183 whole entry): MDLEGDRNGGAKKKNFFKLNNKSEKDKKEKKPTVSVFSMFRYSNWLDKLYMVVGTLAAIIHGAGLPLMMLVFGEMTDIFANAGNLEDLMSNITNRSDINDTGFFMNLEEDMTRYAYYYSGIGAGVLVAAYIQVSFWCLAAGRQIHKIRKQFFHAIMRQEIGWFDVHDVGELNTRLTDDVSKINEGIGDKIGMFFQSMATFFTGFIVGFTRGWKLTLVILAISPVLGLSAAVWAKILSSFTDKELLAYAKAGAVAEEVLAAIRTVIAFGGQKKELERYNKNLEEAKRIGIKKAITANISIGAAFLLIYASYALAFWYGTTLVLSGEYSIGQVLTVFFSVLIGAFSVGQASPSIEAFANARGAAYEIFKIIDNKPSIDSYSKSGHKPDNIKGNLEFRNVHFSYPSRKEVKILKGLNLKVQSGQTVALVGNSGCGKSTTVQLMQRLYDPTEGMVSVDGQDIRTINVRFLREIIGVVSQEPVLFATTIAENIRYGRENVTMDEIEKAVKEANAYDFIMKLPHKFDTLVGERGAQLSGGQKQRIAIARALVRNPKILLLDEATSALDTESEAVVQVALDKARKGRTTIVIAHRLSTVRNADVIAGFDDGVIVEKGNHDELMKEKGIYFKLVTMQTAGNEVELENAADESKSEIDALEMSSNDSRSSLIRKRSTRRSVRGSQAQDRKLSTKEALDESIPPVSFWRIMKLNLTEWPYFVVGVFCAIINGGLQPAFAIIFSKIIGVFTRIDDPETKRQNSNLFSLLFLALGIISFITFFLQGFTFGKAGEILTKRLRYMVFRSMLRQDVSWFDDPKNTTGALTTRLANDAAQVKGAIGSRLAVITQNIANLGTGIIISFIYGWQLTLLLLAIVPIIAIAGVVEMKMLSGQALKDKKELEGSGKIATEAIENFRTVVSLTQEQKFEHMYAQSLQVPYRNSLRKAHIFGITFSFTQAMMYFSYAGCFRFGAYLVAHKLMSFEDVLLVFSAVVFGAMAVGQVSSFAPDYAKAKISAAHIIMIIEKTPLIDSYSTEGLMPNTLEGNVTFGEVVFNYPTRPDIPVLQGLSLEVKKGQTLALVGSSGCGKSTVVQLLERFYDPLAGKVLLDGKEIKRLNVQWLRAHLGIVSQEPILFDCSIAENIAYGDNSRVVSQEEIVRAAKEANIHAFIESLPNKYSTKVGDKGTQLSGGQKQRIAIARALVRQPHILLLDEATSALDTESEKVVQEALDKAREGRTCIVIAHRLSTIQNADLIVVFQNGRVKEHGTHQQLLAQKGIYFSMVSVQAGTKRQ
SMILES,t (1 / 2) [1],"IC50 [3, 31]",chromatographic logD [4],solubility kinetic [5],half-life at 1 µM [7],CLint in vitro [8],IC50 at 24 h [11],IC50 [3],IC50 [12],IC50 at 72 h [13],"remaining at 1 h, 1 µM [19]",remaining at 1 µM [20],other results
O/N=C(\Nc1ccccc1)c1ccccc1-c1ccccc1,2 min,4.39 µg/mL,4.32,25 µM,3 min,352 µL/min/mg,36.9 µg/mL,–,–,–,–,–,half-life at 1 µM [2]: 112 min; MSD [6]: 4 days; microsomal CLint at 1 µM [9]: 338 µL/min/mg; microsomal CLint at 1 µM [10]: 8 µL/min/mg
CC1(C)[C@H]2CC[C@@H](CNCc3coc(-c4ccc(-c5ccccc5)cc4)n3)[C@@H]1C2,80 min and 34 min,–,–,–,–,25 µL/min/mg and 11 µL/min/mg,17.6 µg/mL,0.28 µg/mL and 0.72 µg/mL and 0.58 µg/mL,0.64 µg/mL,< 3.13 µg/mL,–,–,–
Cc1cc(NCCCn2ccnc2)n2nc(-c3cccc(F)c3)cc2n1,–,> 5 µg/mL,3.67,25 µM,–,–,–,–,–,> 10 µg/mL,–,–,"Papp A→B at 1 h, 3 µM [14]: 30.4 ×10⁻⁶ cm/s; recovery at 1 h, 3 µM [15]: 109%; efflux ratio [16]: 0.43; recovery at 1 h, 3 µM [17]: 100%"
c1ccc(-c2ccc(-c3nc(CNC4CCCCCC4)co3)cc2)cc1,88 min and 237 min,–,–,–,–,4 µL/min/mg and 10 µL/min/mg,25.3 µg/mL,0.27 µg/mL and 0.56 µg/mL and 0.41 µg/mL,0.54 µg/mL,< 3.13 µg/mL,–,–,–
Fc1cccc(-c2cc3nc(-c4ccccc4)cc(NCCCN4CCOCC4)n3n2)c1,–,5 µg/mL,> 5.2,3 µM,–,–,–,–,–,> 10 µg/mL,–,–,"Papp A→B at 1 h, 3 µM [14]: 3.26 ×10⁻⁶ cm/s; recovery at 1 h, 3 µM [15]: 51%; half-life at 1 µM [18]: 256 min; efflux ratio [16]: 0.05; recovery at 1 h, 3 µM [17]: 59%"
CCCCCC(C)NCc1coc(-c2ccc(Oc3ccccc3)cc2)n1 (configuration not stated),–,0.42 µg/mL,4.67,6 µM,31 min,28 µL/min/mg,–,–,–,1.6 µg/mL,59.9%,0%,–
CCCCc1ccc(-c2nc(CNCc3c(OC)cccc3OC)co2)cc1,–,0.32 µg/mL,> 5.2,6 µM,13 min,65 µL/min/mg,–,–,–,1.62 µg/mL,18.7%,0.169%,MSD [6]: 4.5 days
O/N=C(\NC1CCCCC1)c1ccccc1-c1ccccc1,–,0.62 µg/mL,4.53,–,7 min,119 µL/min/mg,50 µg/mL,–,–,> 10 µg/mL,6.85%,0%,IC50 [21]: 50.4 µg/mL; IC50 [22]: 2.78 µg/mL; CLint in vitro [23]: 5 µL/min/mg; half-life at 10 µM [24]: 557 min; IC50 [25]: 27.6 µg/mL; solubility kinetic [26]: 6.3 µM; IC50 [27]: 41.7 µg/mL; half-life at 10 µM [28]: 57 min; IC50 [29]: 7.25 µg/mL; microsomal CLint at 10 µM [30]: 51 µL/min/mg
CC1CC(NCc2coc(-c3ccc(-c4ccccc4)cc3)n2)CC(C)(C)C1 (configuration not stated),–,0.27 µg/mL,–,–,154 min,6 µL/min/mg,7.93 µg/mL,0.24 µg/mL and 0.16 µg/mL,0.25 µg/mL,< 3.13 µg/mL,112%,105%,–
COc1ccccc1/C(=N/O)NC1CCCCC1,–,0.52 µg/mL,3.6,–,21 min,40 µL/min/mg,> 50 µg/mL,–,–,> 10 µg/mL,1.05%,0%,IC50 [21]: 7.46 µg/mL; IC50 [22]: 3.7 µg/mL; CLint in vitro [23]: 23 µL/min/mg; half-life at 10 µM [24]: 128 min; IC50 [25]: 17 µg/mL; solubility kinetic [26]: > 200 µM; IC50 [27]: 62.3 µg/mL; half-life at 10 µM [28]: 32 min; IC50 [29]: > 30 µg/mL; microsomal CLint at 10 µM [30]: 91 µL/min/mg
